Laboratory results taken from patent US12171755B2, “PAPD5 inhibitors and methods of use thereof” (Children's Medical Center Corporation, priority 2017, dated 2024).

Biological target: T1, PAPD5 (Homo sapiens, UniProt Q8NDF8)
T1 construct: made in house
Assay: High-throughput luminescence (KinaseGlo) RNA polyadenylation assay, ATP utilization by recombinant PAPD5
Assay type: biochemical
Settings: Table 4 (entries of Table 5), ratio of luminescence with inhibitor to DMSO; for Fold-change determined at compound concentration 33 μM: 33 μM compound; for Fold-change determined at compound concentration 100 μM: 100 μM compound, higher = higher inhibition
Summary of the method: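 Recombinant PAPD5 polyadenylates an oligonucleotide substrate using ATP, and remaining ATP is read by KinaseGlo luciferase luminescence. Compound was incubated for 2 h at room temperature, then with luciferase for 10 min.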

T1 sequence (Q8NDF8 68-698 isoform Q8NDF8-5): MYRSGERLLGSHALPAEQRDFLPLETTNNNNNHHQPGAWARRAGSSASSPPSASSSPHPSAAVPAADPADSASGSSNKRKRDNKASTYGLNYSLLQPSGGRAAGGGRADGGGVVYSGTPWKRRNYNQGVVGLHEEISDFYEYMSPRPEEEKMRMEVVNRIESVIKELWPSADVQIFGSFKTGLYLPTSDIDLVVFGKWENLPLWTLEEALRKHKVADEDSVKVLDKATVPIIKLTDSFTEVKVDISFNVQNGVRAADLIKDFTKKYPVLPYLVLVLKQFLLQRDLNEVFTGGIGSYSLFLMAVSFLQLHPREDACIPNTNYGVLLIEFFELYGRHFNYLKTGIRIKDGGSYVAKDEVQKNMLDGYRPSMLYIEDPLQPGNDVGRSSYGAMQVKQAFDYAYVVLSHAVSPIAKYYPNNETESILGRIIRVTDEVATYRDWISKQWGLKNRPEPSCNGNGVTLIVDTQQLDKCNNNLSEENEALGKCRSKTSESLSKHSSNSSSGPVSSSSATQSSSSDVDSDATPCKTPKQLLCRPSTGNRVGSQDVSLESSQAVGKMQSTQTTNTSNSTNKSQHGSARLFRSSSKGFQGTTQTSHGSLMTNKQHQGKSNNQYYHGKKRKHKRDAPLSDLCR

| Structure (SMILES) | Fold-change determined at compound concentration 33 μM | Fold-change determined at compound concentration 100 μM | Fold-change determined at compound concentration 10 μM (10 μM compound) |
| --- | --- | --- | --- |
| Cc1ccc2c(c1)n(Cc1ccc(Cl)cc1)c(=O)c1nc(C(=O)O)nn12 [Entry 213, 5-(4-chlorobenzyl)-7-methyl-4-oxo-4,5-dihydro[1,2,4]triazolo[1,5-a]quinoxaline-2-carboxylic acid] | 1.199 | 1.579 |  |
| Cc1nn(CC(=O)O)c(=O)c2cc3cc(F)ccc3n12 [Entry 214, 2-(8-fluoro-4-methyl-1-oxo-[1,2,4]triazino[4,5-a]indol-2-yl)acetic acid] | 1.118 | 1.213 |  |
| O=C(O)c1cccn2c(=O)c3c4c(sc3nc12)CCCC4 [Entry 215, 12-oxo-1,2,3,4-tetrahydro-12H-[1]benzothieno[2,3-d]pyrido[1,2-a]pyrimidine-7-carboxylic acid] | 1.074 | 2.037 |  |
| Cc1ccc(S(=O)(=O)NCc2ccc(-c3nn4cnnc4s3)cc2)cc1 [Entry 216, 4-methyl-N-[[4-([1,2,4]triazolo[3,4-b][1,3,4]thiadiazol-6-yl)phenyl]methyl]benzenesulfonamide] | 1.103 | 1.239 |  |
| CCOc1ccc(-c2noc(Cn3cnc4c(cnn4-c4ccccc4)c3=O)n2)cc1OC [Entry 217, 5-[[3-(4-ethoxy-3-methoxyphenyl)-1,2,4-oxadiazol-5-yl]methyl]-1-phenylpyrazolo[3,4-d]pyrimidin-4-one] | 1.114 | 1.245 |  |
| COc1cccc(NC(=O)c2ccc3c(=O)n4nc(Nc5ccccc5OC)sc4nc3c2)c1 [Entry 218, 2-(2-methoxyanilino)-N-(3-methoxyphenyl)-5-oxo-[1,3,4]thiadiazolo[2,3-b]quinazoline-8-carboxamide] | 1.096 | 1.304 |  |
| CC(C)Cn1c(=O)c(-c2ccc(C(=O)Nc3ccc4c(c3)OCCO4)cc2)nc2ccccc21 [Entry 219, N-(2,3-dihydro-1,4-benzodioxin-6-yl)-4-[4-(2-methylpropyl)-3-oxoquinoxalin-2-yl]benzamide] | 1.086 | 1.339 |  |
| Cc1ccc2[nH]c(=O)c3cc(C(=O)O)sc3c2c1 [Entry 220, 8-methyl-4-oxo-5H-thieno[3,2-c]quinoline-2-carboxylic acid] | 1.068 | 1.277 |  |
| COc1ccc(C(=O)N2CCc3ccc(CNS(C)(=O)=O)cc32)cc1 [Entry 221, N-[[1-(4-methoxybenzoyl)-2,3-dihydroindol-6-yl]methyl]methanesulfonamide] | 1.084 | 1.585 |  |
| O=C(O)Cc1c2ccccc2n2c1[nH]c(=O)c1ccccc12 [Entry 222, 2-(5-oxo-6H-indolo[1,2-a]quinazolin-7-yl)acetic acid] | 1.05 | 1.205 |  |
| COc1cc(NS(=O)(=O)c2ccc3oc(=O)c4ncn(C)c4c3c2)cc(OC)c1 [Entry 223, N-(3,5-dimethoxyphenyl)-1-methyl-4-oxochromeno[3,4-d]imidazole-8-sulfonamide] | 1.207 | 1.254 |  |
| COc1ccc(Cc2nccc3cc(OC)c(OC)cc23)cc1OC [Entry 237, 1-(3,4-dimethoxybenzyl)-6,7-dimethoxyisoquinoline] | 1.166 | 1.362 |  |

Next, values leading:

| Fold-change determined at compound concentration 33 μM | Fold-change determined at compound concentration 100 μM | Fold-change determined at compound concentration 10 μM (10 μM compound) | Structure (SMILES) |
| --- | --- | --- | --- |
| 1.193 | 1.37 |  | COc1cc2[nH]c3c(SCC(N)=O)ncnc3c2cc1OC [Entry 224, 2-[(7,8-dimethoxy-5H-pyrimido[5,4-b]indol-4-yl)sulfanyl]acetamide] |
| 1.173 | 1.219 |  | COc1cccc(-c2nnc3n(CCc4ccccc4)c(=O)c4ccccc4n23)c1O [Entry 225, (1Z)-1-(5-methoxy-6-oxocyclohexa-2,4-dien-1-ylidene)-4-(2-phenylethyl)-2H-[1,2,4]triazolo[4,3-a]quinazolin-5-one] |
| 1.095 | 1.228 |  | Cc1cccc2c1-c1sc(C(=O)NCCCN3CCC(C)CC3)cc1CO2 [Entry 226, 9-methyl-N-[3-(4-methylpiperidin-1-yl)propyl]-4H-thieno[3,2-c]chromene-2-carboxamide] |
| 1.097 | 1.425 |  | Cn1[nH]c(-c2cccnc2)c2nc(-c3ccccc3OC(F)F)nc1-2 [Entry 227, 5-[2-(difluoromethoxy)phenyl]-1-methyl-3-pyridin-3-yl-2H-imidazo[4,5-c]pyrazole] |
| 1.146 | 1.3 |  | CCOC(=O)c1c(C)nc2n(C)c3ccccc3n12 [Entry 228, ethyl 2,9-dimethyl-9H-benzo[d]imidazo[1,2-a]imidazole-3-carboxylate] |
| 1.249 | 1.704 |  | O=C(O)CSc1nnc2n(-c3ccccc3)c3ccccc3n12 [Entry 229, [(9-Phenyl-9H-[1,2,4]triazolo[4,3-a]benzimidazol-3-yl)thio]acetic acid] |
| 1.053 | 1.527 |  | Cc1nc(-c2cnccn2)nc2c1CC(=O)N2CC1CCCO1 (centres unmarked) [Entry 230, 4-methyl-2-(2-pyrazinyl)-7-(tetrahydro-2-furanylmethyl)-5,7-dihydro-6H-pyrrolo[2,3-d]pyrimidin-6-one] |
| 1.068 | 1.36 |  | CCn1c(=S)sc2c(=O)n3[nH]c(=O)c4ccccc4c3nc21 [Entry 231, 11-ethyl-10-thioxo-10,11-dihydro-6H-[1,3]thiazolo[4′,5′:4,5]pyrimido[2,1-a]phthalazine-5,8-dione] |
| 1.198 | 1.342 |  | CC1CCN(C(=O)CSc2nc3c(c(=O)n2Cc2ccccc2)SCC3)CC1 [Entry 232, 3-benzyl-2-((2-(4-methylpiperidin-1-yl)-2-oxoethyl)thio)-6,7-dihydrothieno[3,2-d]pyrimidin-4(3H)-one] |
| 1.256 | 1.859 |  | CC1Oc2ccc(C(=O)CSc3nc(-c4ccc(Cl)cc4)c(C#N)c(=O)[nH]3)cc2NC1=O (centres unmarked) [Entry 233, 4-(4-chlorophenyl)-2-{[2-(2-methyl-3-oxo-3,4-dihydro-2H-1,4-benzoxazin-6-yl)-2-oxoethyl]sulfanyl}-6-oxo-1,6-dihydro-5-pyrimidinecarbonitrile] |
| 1.319 | 1.648 |  | CC(=O)Nc1ccc2nc3c(=O)[nH]c(=O)[nH]c3nc2c1 [Entry 234, N-(2,4-dioxo-1H-benzo[g]pteridin-8-yl)acetamide] |
| 1.177 | 1.452 |  | N#Cc1c[nH]n2c(NC3CCCCC3)c(-c3ccccc3F)nc12 [Entry 235, 3-(cyclohexylamino)-2-(2-fluorophenyl)-5H-imidazo[1,2-b]pyrazole-7-carbonitrile] |
| 1.39 | 1.75 | 1.272 | CN1C(=O)C(c2c(-c3ccc4ccccc4c3)[nH]c3[nH]c(=O)[nH]c(=O)c23)c2ccccc21 (centres unmarked) [Entry 236, 5-(1-methyl-2-oxo-2,3-dihydro-1H-indol-3-yl)-6-(2-naphthyl)-1H-pyrrolo[2,3-d]pyrimidine-2,4(3H,7H)-dione] |
| 1.119 | 1.238 |  | Cc1ccc(Cn2c(SCc3ccc(C(=O)O)cc3)nc3cccnc32)cc1 [Entry 238, 4-[[3-[(4-methylphenyl)methyl]imidazo[4,5-b]pyridin-2-yl]sulfanylmethyl]benzoic acid] |
| 1.125 | 1.314 |  | CN1CCCc2cc(C(=O)NC3CCCCC3)sc21 [Entry 239, N~2~cyclohexyl-7-methyl-4,5,6,7-tetrahydrothieno[2,3-b]pyridine-2-carboxamide] |
| 1.091 | 1.206 |  | Cc1ccc(-n2nc3c(=O)n(CCCC(=O)NCc4ccccc4C)nc(C)c3c2C)cc1 [Entry 240, 4-[3,4-dimethyl-2-(4-methylphenyl)-7-oxopyrazolo[3,4-d]pyridazin-6-yl]-N-[(2-methylphenyl)methyl]butanamide] |
| 1.099 | 1.249 |  | NC(=O)CN1c2ccc(F)cc2-c2ccccc2S1(=O)=O [Entry 241, 2-(9-fluoro-5,5-dioxido-6H-dibenzo[c,e][1,2]thiazin-6-yl)acetamide] |
